Experiment [1] deals with T1, Keap1 Kelch domain (321-609) / TAMRA-labeled 16mer NRF2 peptide (ETGE motif) (Homo sapiens, UniProt Q14145).
T1 construct: the Kelch domain (321-609) of Keap1 is used
Nature of the experiment: NRF2-Keap1 FP Assay (Keap1 Kelch fluorescence polarization). Type of experiment: binding. As to conditions: 20 nM Keap1 (321-609), 8 nM Tamra labeled peptide. The gist of the method: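 Compound dilutions (3-fold) were incubated 1 hr at room temperature with 20 nM Keap1 Kelch (321-609) and 8 nM TAMRA-labeled ETGE 16mer peptide. Buffer was 50 mM Tris pH 8.0, 100 mM NaCl, 5 mM MgCl2, 1 mM DTT, 2 mM CHAPS, 0.005% BSA. Fluorescence polarization (mP) was normalized to controls and fitted with a four-parameter equation to give pIC50.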
A general note: In fluorescence polarisation assays a small probe gives low polarisation when free and higher when bound to something large.

The target of experiment [2] is T2, full length Keap1 protein / full length NRF2 protein (Homo sapiens, UniProt Q14145).
T2 construct: full length NRF2 protein and full length Keap1 protein (Keap1 exists a dimer) are used; His
In words: NRF2-Keap1 TR-FRET Assay. Type of experiment: binding. The following applies: 25 nM Keap1-FlagHis and 50 nM biotin-NRF2 added. The gist of the method: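 Full-length Keap1-FlagHis preincubated with compound 2.25 h at 37 °C, then biotin-NRF2 added for 1.25 h at 4 °C, in Tris pH 8.0 with MgCl2, NaCl, BSA, DTT, CHAPS. TR-FRET 665/615 nm ratio normalised to with- and without-protein 1% DMSO controls; pIC50 from four-parameter fit.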
In general terms: In TR-FRET formats the signal depends on donor and acceptor labels being close together.

Drawing on patent US10364256B2 (GlaxoSmithKline Intellectual Property Development Limited, priority 2015, dated 2019), this text covers IC50 for 23 compounds.

T2 sequence (Q14145 whole entry): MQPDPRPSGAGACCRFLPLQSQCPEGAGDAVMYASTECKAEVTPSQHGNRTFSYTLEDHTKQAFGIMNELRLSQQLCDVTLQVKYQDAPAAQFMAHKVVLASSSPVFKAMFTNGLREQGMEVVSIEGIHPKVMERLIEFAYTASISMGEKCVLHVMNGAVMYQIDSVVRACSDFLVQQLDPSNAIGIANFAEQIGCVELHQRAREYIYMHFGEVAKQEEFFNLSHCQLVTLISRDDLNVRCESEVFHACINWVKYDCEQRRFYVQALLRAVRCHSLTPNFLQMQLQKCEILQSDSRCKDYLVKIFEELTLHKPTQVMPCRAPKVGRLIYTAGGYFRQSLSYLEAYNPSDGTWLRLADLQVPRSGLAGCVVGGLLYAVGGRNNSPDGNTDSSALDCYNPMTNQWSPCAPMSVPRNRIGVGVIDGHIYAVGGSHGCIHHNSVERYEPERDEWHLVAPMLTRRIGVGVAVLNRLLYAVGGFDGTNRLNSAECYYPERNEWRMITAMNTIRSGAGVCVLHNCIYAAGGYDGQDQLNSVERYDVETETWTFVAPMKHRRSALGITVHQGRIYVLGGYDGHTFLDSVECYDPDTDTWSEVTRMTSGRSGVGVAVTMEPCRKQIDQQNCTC
T1 sequence (Q14145 321-609): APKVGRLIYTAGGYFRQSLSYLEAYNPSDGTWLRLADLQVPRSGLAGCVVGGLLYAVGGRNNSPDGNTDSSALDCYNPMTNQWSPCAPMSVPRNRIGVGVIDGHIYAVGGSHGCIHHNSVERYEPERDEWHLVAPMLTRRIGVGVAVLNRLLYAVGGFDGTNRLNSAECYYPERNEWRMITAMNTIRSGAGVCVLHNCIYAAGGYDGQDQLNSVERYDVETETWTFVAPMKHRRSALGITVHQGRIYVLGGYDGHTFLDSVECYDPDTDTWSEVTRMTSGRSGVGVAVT

A word on the IC50: it is the point on the concentration scale where inhibition reaches its midpoint. Low readings indicate inhibition by little substance, high ones a need for much substance. Consider `CCC[C@@H]1CCCCN1C(=O)c1cccc(-c2cc(Cl)cc(-n3ncc(C(=O)O)c3C3CC3c3cn(C)nn3)c2)c1` (stereo partly drawn) [Example 160, 1-(5-Chloro-3′-((R)-2-propylpiperidine-1-carbonyl)-[1,1′-biphenyl]-3-yl)-5-(2-(1-methyl-1H-1,2,3-triazol-4-yl)cyclopropyl)-1H-pyrazole-4-carboxylic Acid Compound with 2,2,2-trifluoroacetic Acid (1:1)], for which the IC50 in experiment [1] and in experiment [2] was 10 to 100 nM in each case.
Take `CC(CC1CCCCC1)Oc1cccc(-c2cccc(-n3ncc(C(=O)O)c3C3CC3)c2)c1` (stereo not shown) [Example 161, 1-(3′-((1-Cyclohexylpropan-2-yl)oxy)-[1,1′-biphenyl]-3-yl)-5-cyclopropyl-1H-pyrazole-4-carboxylic Acid]: the IC50 lay within 1000 to 10000 nM in experiment [1] and 10000 to 100000 nM in experiment [2].
Consider `CC(Oc1cccc(-c2cccc(-n3ncc(C(=O)O)c3[C@@H]3C[C@H]3c3cn(C)nn3)c2)c1)C1CCCCC1` (stereo partly drawn) [Example 163, 1-(3′-(1-Cyclohexylethoxy)-[1,1′-biphenyl]-3-yl)-5-((1R,2R)-2-(1-methyl-1H-1,2,3-triazol-4-yl)cyclopropyl)-1H-pyrazole-4-carboxylic acid], for which the results for the IC50 in experiment [1] and in experiment [2] were 100 to 1000 nM and 1000 to 10000 nM, respectively.
Turning to `Cn1cc(C2CC2c2c(C(=O)O)cnn2-c2cccc(-c3cccc(OCC4CCCCC4)c3)c2)nn1` (stereo not shown) [Example 164, 1-(3′-(Cyclohexylmethoxy)-[1,1′-biphenyl]-3-yl)-5-(2-(1-methyl-1H-1,2,3-triazol-4-yl)cyclopropyl)-1H-pyrazole-4-carboxylic acid], the IC50 was in the range of 10 to 100 nM in experiment [1] and 100 to 1000 nM in experiment [2].
The corresponding values for `CC(Oc1cccc(-c2cccc(-n3ncc(C(=O)O)c3[C@H]3C[C@@H]3c3cn(C)nn3)c2)c1)C1CCCCC1` (stereo partly drawn) [Example 165, 1-(3′-(1-Cyclohexylethoxy)-[1,1′-biphenyl]-3-yl)-5-((1S,2S)-2-(1-methyl-1H-1,2,3-triazol-4-yl)cyclopropyl)-1H-pyrazole-4-carboxylic acid] are 10 to 100 nM and 10 to 100 nM.
`Cn1cc(C2CC2c2c(C(=O)O)cnn2-c2cccc(-c3cccc(OCC4CCN(C(=O)OC(C)(C)C)CC4)c3)c2)nn1` (stereo not shown) [Example 167, 1-(3′-((1-(tert-Butoxycarbonyl)piperidin-4-yl)methoxy)-[1,1′-biphenyl]-3-yl)-5-(2-(1-methyl-1H-1,2,3-triazol-4-yl)cyclopropyl)-1H-pyrazole-4-carboxylic acid]: the IC50 in experiment [1] lay in the range of 10 to 100 nM; in experiment [2], 100 to 1000 nM.
For `Cn1cc([C@@H]2C[C@H]2c2c(C(=O)O)cnn2-c2cccc(-c3cccc(OCC4CCCCC4)c3)c2)nn1` [Example 171, 1-(3′-(Cyclohexylmethoxy)-[1,1′-biphenyl]-3-yl)-5-((1R,2R)-2-(1-methyl-1H-1,2,3-triazol-4-yl)cyclopropyl)-1H-pyrazole-4-carboxylic acid] the same measures were 10 to 100 nM and 100 to 1000 nM.
For `Cn1cc(C2CC2c2c(C(=O)O)cnn2-c2cccc(-c3cccc(SCC4CCCCC4)c3)c2)nn1` (stereo not shown) [Example 179, 1-(3′-((Cyclohexylmethyl)thio)-[1,1′-biphenyl]-3-yl)-5-(2-(1-methyl-1H-1,2,3-triazol-4-yl)cyclopropyl)-1H-pyrazole-4-carboxylic acid] the same measures were 10 to 100 nM and 100 to 1000 nM.
As for `COC(c1cccc(-c2cccc(-n3ncc(C(=O)O)c3C3CC3c3cn(C)nn3)c2)c1)C1CCCC1` (stereo not shown) [Example 183, 1-(3′-(Cyclopentyl(methoxy)methyl)-[1,1′-biphenyl]-3-yl)-5-(2-(1-methyl-1H-1,2,3-triazol-4-yl)cyclopropyl)-1H-pyrazole-4-carboxylic acid], the 50% inhibitory concentration (IC50) lay within 10 to 100 nM in experiment [1] and 100 to 1000 nM in experiment [2].
For `Cc1nn(-c2cccc(-c3cccc(OCC4CCCCC4)c3)c2)c(C2CC2c2cn(C)nn2)c1C(=O)O` (stereo not shown) [Example 188, 1-(3′-(cyclohexylmethoxy)-[1,1′-biphenyl]-3-yl)-3-methyl-5-(2-(1-methyl-1H-1,2,3-triazol-4-yl)cyclopropyl)-1H-pyrazole-4-carboxylic Acid] the same measures were 100 to 1000 nM and 1000 to 10000 nM.
For `CCC[C@@H]1CCCCN1C(=O)c1cccc(-c2cccc(-n3ncc(C(=O)O)c3C3CC3c3cn(C)nn3)n2)c1` (stereo partly drawn) [Example 196, 5-(2-(1-Methyl-1H-1,2,3-triazol-4-yl)cyclopropyl)-1-(6-(3-((R)-2-propylpiperidine-1-carbonyl)phenyl)pyridin-2-yl)-1H-pyrazole-4-carboxylic Acid] the same measures were 10 to 100 nM and 10 to 100 nM.
For the compound `CCC[C@@H]1CCCCN1C(=O)c1cncc(-c2cccc(-n3ncc(C(=O)O)c3C3CC3c3cn(C)nn3)c2)c1` (stereo partly drawn) [Example 197, 5-(2-(1-Methyl-1H-1,2,3-triazol-4-yl)cyclopropyl)-1-(3-(5-((R)-2-propylpiperidine-1-carbonyl)pyridin-3-yl)phenyl)-1H-pyrazole-4-carboxylic acid], the IC50 in experiment [1] and in experiment [2] was 10 to 100 nM in each case.
As for `CCC[C@@H]1CCCCN1C(=O)c1cccc(-c2cccc(-n3nc(C)c(C(=O)O)c3C3CC3c3cn(C)nn3)c2)c1` (stereo partly drawn) [Example 202, 3-Methyl-5-(2-(1-methyl-1H-1,2,3-triazol-4-yl)cyclopropyl)-1-(3′-((R)-2-propylpiperidine-1-carbonyl)-[1,1′-biphenyl]-3-yl)-1H-pyrazole-4-carboxylic acid], the IC50 in experiment [1] and in experiment [2] was 10 to 100 nM in each case.
With `CC1(C)CCc2cnn(-c3cccc(-c4cccc(-n5ncc(C(=O)O)c5C(F)(F)F)n4)c3)c21` [Example 204, 1-(6-(3-(6,6-Dimethyl-5,6-dihydrocyclopenta[c]pyrazol-1(4H)-yl)phenyl)pyridin-2-yl)-5-(trifluoromethyl)-1H-pyrazole-4-carboxylic Acid], the IC50 in experiment [1] was in the range of 100 to 1000 nM; in experiment [2], 1000 to 10000 nM.
As to `CCCC1(C)CCc2cnn(-c3cccc(-c4cccc(-n5ncc(C(=O)O)c5C5CC5)c4)c3)c21` (stereo not shown) [Example 205, 5-Cyclopropyl-1-(3′-(6-methyl-6-propyl-5,6-dihydrocyclopenta[c]pyrazol-1(4H)-yl)-[1,1′-biphenyl]-3-yl)-1H-pyrazole-4-carboxylic Acid], the IC50 in experiment [1] and in experiment [2] was 100 to 1000 nM in each case.
As to `CCCCC1CCc2cnn(-c3cccc(-c4cccc(-n5ncc(C(=O)O)c5C5CC5)c4)c3)c21` (stereo not shown) [Example 206, 1-(3′-(6-Butyl-5,6-dihydrocyclopenta[c]pyrazol-1(4H)-yl)-[1,1′-biphenyl]-3-yl)-5-cyclopropyl-1H-pyrazole-4-carboxylic Acid], the IC50 in experiment [1] fell in the range of 100 to 1000 nM; in experiment [2], 1000 to 10000 nM.
The corresponding values for `CCc1nc(-c2cccc(-c3cccc(-n4ncc(C(=O)O)c4C4CC4)c3)c2)no1` [Example 209, 5-Cyclopropyl-1-(3′-(5-ethyl-1,2,4-oxadiazol-3-yl)-[1,1′-biphenyl]-3-yl)-1H-pyrazole-4-carboxylic Acid] are 1000 to 10000 nM and 10000 to 100000 nM.
For `Cc1nnc(-c2cccc(-c3cccc(-n4ncc(C(=O)O)c4C4CC4)c3)c2)o1` [Example 210, 5S-Cyclopropyl-1-(3′-(5-methyl-1,3,4-oxadiazol-2-yl)-[1,1′-biphenyl]-3-yl)-1H-pyrazole-4-carboxylic acid], the values for the IC50 in experiment [1] and in experiment [2] were more than 10000 nM and more than 100000 nM, respectively.
Consider `Cn1cc(C2CC2c2c(C(=O)O)cnn2-c2cccc(-c3cccc(-n4ncc5c4C(C)(C)CC5)c3)c2)nn1` (stereo not shown) [Example 212, 1-(3′-(6,6-Dimethyl-5,6-dihydrocyclopenta[c]pyrazol-1(4H)-yl)-[1,1′-biphenyl]-3-yl)-5-(2-(1-methyl-1H-1,2,3-triazol-4-yl)cyclopropyl)-1H-pyrazole-4-carboxylic Acid], for which the IC50 in experiment [1] and in experiment [2] was 10 to 100 nM throughout.
For `CCC[C@@H]1CCCCN1C(=O)c1cccc(-c2cccc(-n3ncc(C(=O)O)c3C3CC3c3cnn(C)c3)c2)c1` (stereo partly drawn) [Example 213, 5-(2-(1-Methyl-1H-pyrazol-4-yl)cyclopropyl)-1-(3′-((R)-2-propylpiperidine-1-carbonyl)-[1,1′-biphenyl]-3-yl)-1H-pyrazole-4-carboxylic Acid], the IC50 in experiment [1] and in experiment [2] was 10 to 100 nM in each case.
Take `CCC[C@@H]1CCCCN1C(=O)c1cccc(-c2cccc(-n3ncc(C(=O)O)c3C3CC3c3cnn(C)c3)c2)c1F` (stereo partly drawn) [Example 214, 1-(2′-Fluoro-3′-((R)-2-propylpiperidine-1-carbonyl)-[1,1′-biphenyl]-3-yl)-5-(2-(1-methyl-1H-pyrazol-4-yl)cyclopropyl)-1H-pyrazole-4-carboxylic Acid]: the IC50 in experiment [1] and in experiment [2] was 10 to 100 nM in each case.
On to `Cn1cc(C2CC2c2c(C(=O)O)cnn2-c2cccc(-c3cccc(C(=O)CC4CCCCC4)c3)c2)nn1` (stereo not shown) [Example 215, 1-(3′-(2-Cyclohexylacetyl)-[1,1′-biphenyl]-3-yl)-5-(2-(1-methyl-1H-1,2,3-triazol-4-yl)cyclopropyl)-1H-pyrazole-4-carboxylic Acid], for which the IC50 lay in the range of 10 to 100 nM in experiment [1] and 100 to 1000 nM in experiment [2].
Turning to `COC(CC1CCCCC1)c1cccc(-c2cccc(-n3ncc(C(=O)O)c3C3CC3c3cn(C)nn3)c2)c1` (stereo not shown) [Example 216, 1-(3′-(2-Cyclohexyl-1-methoxyethyl)-[1,1′-biphenyl]-3-yl)-5-(2-(1-methyl-1H-1,2,3-triazol-4-yl)cyclopropyl)-1H-pyrazole-4-carboxylic Acid], the IC50 was 10 to 100 nM in experiment [1] and 100 to 1000 nM in experiment [2].
